Reference: patent publication US20260345572A1, “PHARMACEUTICAL FORMULATIONS WITH ACTIVITY INHIBITING HISTONE METHYLTRANSFERASES FOR THE TREATMENT OF NEOPLASTIC DISEASES” (Ente Ospedaliero Specializzato in Gastroenterologia …, priority 2022, published 2026)

Experiments:
AGS gastric cancer cells [1] = experiment: Cell viability (WST-1); type: cell-based, human
Experimental: (§1) The human cell lines HT29, HCT116, SW480, MDA-MB-231, MDA-MB-468, HGC-27, and PANC1 were cultured in DMEM culture medium, supplemented with 10% fetal bovine serum (FBS); N87, AGS and KATO III were cultured in RPMI culture medium supplemented with 10% FBS; CACO2 were cultured in DMEM culture medium, supplemented with 20% FBS and nonessential amino acids. All cell lines were cultured in the presence of 1% antibiotics (Penicillin and Streptomycin), at 37 °C in an atmosphere of 5% CO2 and always maintained in a subconfluence state.
(§2) Cell viability analysis was performed by using WST-1 kit (Roche), allowing to measure viable cell metabolic activity. In short, the quantitation of mitochondrial dehydrogenase activity is assessed by soluble tetrazolium salt ([…], colorless) conversion into its corresponding product, formazane (colored). The quantitative assessment of salt conversion into its colored form is then performed by spectrophotometrically calculating absorption at 450 nm. Substrate conversion levels are therefore proportional to enzymatic activity which, in turn, represents a marker of cell viability and proliferation.

[2] = system: Caco2 colorectal cancer cells; experiment: Cell viability (WST-1); type: cell-based, human; details: FIG. 1A; EM127 72 h + Oxaliplatin, 5-Fluorouracil or Irinotecan 10 μM for the last 24 h; vs chemotherapeutic compound alone
Experimental: as §1, §2

HCT116 cells [3] = experiment: Cell viability (WST-1); type: cell-based, human; details: FIG. 5
Experimental: as §1, §2

[4] = system: HGC-27 gastric cancer cells; experiment: Cell viability (WST-1); type: cell-based, human
Experimental: as §1, §2

HT29 cells = experiment: Cell viability (WST-1); type: cell-based, human; details: FIG. 5
Experimental: as §1, §2

KATO III cells = experiment: Cell viability (WST-1); type: cell-based, human; details: FIG. 7; EM127 alone; low SMYD3 protein levels
Experimental: as §1, §2

[5] = system: MDA-MB-231 breast cancer cells; experiment: Cell viability (WST-1); type: cell-based, human; details: FIG. 4; EM127 + chemotherapeutic compounds (Paclitaxel 10 μM, Oxaliplatin 10 μM, Doxorubicin 1 μM)
Experimental: as §1, §2

MDA-MB-468 cells = experiment: Cell viability (WST-1); type: cell-based, human; details: FIG. 7; EM127 alone; low SMYD3 protein levels
Experimental: as §1, §2

N87 gastric cancer cells = experiment: Cell viability (WST-1); type: cell-based, human
Experimental: as §1, §2

[6] = system: PANC1 pancreatic cancer cells; experiment: Cell viability (WST-1); type: cell-based, human
Experimental: as §1, §2

[7] = system: SW480 colorectal cancer cells; experiment: Cell viability (WST-1); type: cell-based, human
Experimental: as §1, §2

HCT116 cells [8] = experiment: Apoptotic cell percentage (Annexin V); type: cell-based, human; details: FIG. 1B; EM127 + chemotherapeutic compound (Oxaliplatin, 5-Fluorouracil or Irinotecan, 10 μM)
Experimental: as §1
(§3) Analysis of the percentage of cells undergoing programmed death, referred to as apoptosis, was performed by Annexin V assay. The concentrations of live cells, cells in early apoptosis, in total apoptosis and dead cells were measured with Muse Annexin V and Dead Cell Reagent kit (Luminex). 5×10^4 cells/mL were stained with the reagent provided by the kit. After 20 min incubation, fluorescence is read with Guava® Muse® Cell Analyzer. The test was performed on the following cell lines: HCT116, PANC1, SW480, MDA-MB-231, MCF7, AGS.

[9] = system: HCT116-derived tumor spheroids; experiment: LIVE/DEAD viability of tumorspheres; type: cell-based, human; details: FIG. 2; EM127 + Oxaliplatin or Irinotecan 10 μM
Experimental: The tumorspheres deriving from the continuous cell line HCT116 “HCT116-derived tumor spheroids” were obtained by using a suitable DMEM/F12 Advanced culture medium supplemented with 1× Glutamine, 1× Penicillin/streptomycin, 0.6% glucose, 1×B27, 1×N2, 20 ng/ml EGF, 10 ng/ml bFGF, and cultured in media surface-treated to ensure a very low cell adhesion.
To assess cell viability on HCT116-derived tumorspheres, LIVE/DEAD® Viability/Cytotoxicity Assay kit (Thermo Fisher) was used, allowing to discriminate live cells from dead ones with two probes measuring intracellular enzymatic activity and plasma membrane integrity. Tumorspheres were incubated with the reagent provided by the kit and then visualized with a fluorescence microscope. Live cells are stained with reagent calcein and generate a green fluorescence signal; dead cells are stained with ethidium homodimer, generating a red signal.

[10] = system: colorectal cancer stem cells; experiment: Cancer stem cell viability; type: cell-based, human; details: FIG. 3A; EM127 + Oxaliplatin, 5-Fluorouracil or Irinotecan 10 μM
Excerpt: (§4) In compliance with Art 170bis, Paragraph 3 C.P.I., it is hereby certified that: • The colorectal cancer stem cells used at the base of the invention object of the present application have been isolated from patients, and the aforementioned cells were obtained following the free and informed consent to their collection and use expressed by the person from whom said material has been collected, under the regulations in force; and • C57BL/6 mice for the AOM/DSS murine model of colorectal cancer were not genetically modified.
as §2

[11] = system: colorectal cancer stem cells; experiment: Migration assay (Boyden chamber); type: cell-based, human; details: FIG. 3B; EM127 + Oxaliplatin, 5-Fluorouracil or Irinotecan 10 μM
Excerpt: as §4
To assess cell motility, colorectal cancer tumorspheres were suspended in 200 μl non-supplemented stem cell culture medium and plated in the top section of a Boyden culture chamber, which is separated from the bottom part by a polycarbonate membrane allowing cells to migrate. The underlying section contains 600 μl of stem cell medium supplemented with 20 ng/ml EGF and 10 ng/ml basic FGF and chemotherapeutic compounds.

[12] = system: colorectal cancer stem cells; experiment: Clonogenic assay; type: cell-based, human; details: FIG. 3C; EM127 + Oxaliplatin, 5-Fluorouracil or Irinotecan 10 μM
Excerpt: as §4
For the clonogenic assay, previously dissociated colorectal cancer tumorspheres were plated in triplicate using 500 cells per experimental point and resuspended in 0.3% agarose on a 0.5% agarose layer. Subsequently, they were treated with EM127 and chemotherapeutic compounds.

[13] = system: PANC1, SW80, AGS, N87, HGC-27 cells; experiment: Cell death and viability, FIG. 6 panel of cell lines; type: cell-based, human; details: 72 h
Experimental: as §1
as §2, with “Substrate conversion levels are therefore proportional to enzymatic activity which, in turn, represents a marker of cell viability and proliferation.” left out
as §3, with “5×10^4 cells/mL were stained with the reagent provided by the kit.” left out, “The test was performed on the following cell lines: HCT116, PANC1, SW480, MDA-MB-231, MCF7, AGS.” left out

[14] = system: AOM/DSS murine model of colorectal cancer; experiment: AOM/DSS murine model of colorectal cancer; type: in vivo, C57BL/6 mice; details: FIG. 8; EM127 20 mg/kg + Irinotecan 20 mg/kg, intraperitoneally, 14 days; vs Irinotecan alone
Experimental: C57BL/6 mice were treated intraperitoneally with 12 mg/kg azoxymethane (AOM). Dextran sulfate sodium (DSS) was then administered, at 2% in water for five days, followed by two weeks with water only. This cycle was repeated thrice. At +10 days from the last DSS administration, the Inventors proceeded with the treatment with 20 mg/kg EM127 and/or 20 mg/kg Irinotecan, or with the carrier alone, intraperitoneally, for a total of 14 days.

AGS gastric cancer cells [15] = experiment: Synergistic effect, nonviable/apoptotic cell population; type: cell-based, human; details: FIG. 9, >1 = synergistic
Experimental: (§5) Analysis of non-viable cell percentage was carried out by counting live cells and dead cells after staining with 0.01% Trypan Blue, a dye permeating cells only in the condition in which plasma membrane integrity is compromised. In short, after collecting the culture medium and the plate-adhering cells, detached by enzymatic treatment with 1% trypsin/EDTA, the pellet obtained by centrifuging was resuspended in an adequate volume of DPBS and 10 μl of cell suspension were diluted in an equal volume of Trypan blue. The counting was performed with a phase-contrast optical microscope, using a Burker chamber.
as §3

MCF7 breast cancer cells = experiment: as above; type: cell-based, human; details: FIG. 9, >1 = synergistic
Experimental: as §5, §3

[16] = system: MDA-MB-231 breast cancer cells; experiment: as above; type: cell-based, human; details: FIG. 9, >1 = synergistic
Experimental: as §5, §3

HR-deficient cell lines = details: previously described; cited from earlier work
[17] = FIG. 6C, EM127 + Olaparib 10 μM, 72 h, vs single compound
[18] = EM127 72 h + 5-Fluorouracil 10 μM last 24 h
[19] = EM127 72 h + Irinotecan 10 μM last 24 h
[20] = EM127 72 h + Oxaliplatin 10 μM last 24 h
[21] = FIG. 4, EM127 + chemotherapeutic compounds (Paclitaxel 10 μM, Oxaliplatin 10 μM, Doxorubicin 1 μM)
[22] = single-compound treatment, 72 h, increasing concentrations

With `O=C(NC1CCN(C(=O)CCl)CC1)c1cc(C2CC2)on1` [EM127] the cell viability (AGS gastric cancer cells [1]; [17]) was “reduction of cell viability”, the cell viability (AGS gastric cancer cells [1]; FIG. 10, EM127 + Rucaparib) was “synergistic effect” and the cell viability [2] was “reduces cell viability with a greater effect”. The “reduction of cell viability” value (HCT116 cells [3]; [18]) was “about 50%”, the “reduction of cell viability” value (HCT116 cells [3]; [19]) was “about 50%” and the “reduction of cell viability” value (HCT116 cells [3]; [20]) was “about 50%”. The cell viability [4, 21] was “synergistic effect”, the cell viability [4, 17] was “reduction of cell viability” and the cell viability ([4]; FIG. 10, EM127 + Rucaparib) was “synergistic effect”. For the same molecule, the “reduction of cell viability” value (HT29 cells; [18]) was “about 50%”, the “reduction of cell viability” value (HT29 cells; [19]) was “about 50%” and the “reduction of cell viability” value (HT29 cells; [20]) was “about 50%”. For the same molecule, the cell viability (KATO III cells) was “absence of effect”, the cell viability [5] was “synergistic effect” and the cell viability (MDA-MB-468 cells) was “absence of effect”. For the same molecule, the cell viability (N87 gastric cancer cells; [21]) was “synergistic effect”, the cell viability (N87 gastric cancer cells; [17]) was “reduction of cell viability” and the cell viability (N87 gastric cancer cells; FIG. 10, EM127 + Rucaparib) was “synergistic effect”. The cell viability [6, 17] was “reduction of cell viability”, the cell viability ([6]; FIG. 10, EM127 + Rucaparib) was “synergistic effect” and the cell viability ([7]; FIG. 1A, EM127 72 h + Oxaliplatin, 5-Fluorouracil or Irinotecan 10 μM for the last 24 h, vs chemotherapeutic compound alone) was “reduces cell viability with a greater effect”. The cell viability ([7]; FIG. 6C, EM127 + Olaparib 10 μM, 72 h, vs single compound, cell line printed SW80) was “reduction of cell viability”, the cell viability ([7]; FIG. 10, EM127 + Rucaparib) was “synergistic effect” and the “dead (apoptotic) cell percentage” value (HCT116 cells [8]) was “increased”. For the same molecule, the “live and dead cells by immunofluorescence” value [9] was “synergy”, the cell viability [10] was “synergistic effect” and the ability to migrate [11] was “synergistic effect”. For the same molecule, the “ability to form colonies” value [12] was “synergistic effect”, the cell death ([13]; FIG. 6A, B, EM127 + Olaparib 10 μM, vs single compound) was “increase of cell death” and the “cell viability by HR status” value ([13]; FIG. 6C, combined treatment EM127 + Olaparib 10 μM) was “reduction of cell viability only for HR-proficient cell lines”. The “number of tumors at the level of the colon” value [14] was “reduces the number of tumors”, the synergistic effect (AGS gastric cancer cells [15]; EM127 + Doxorubicin) was “higher than 1” and the synergistic effect (AGS gastric cancer cells [15]; EM127 + Paclitaxel) was “higher than 1”. The synergistic effect (MCF7 breast cancer cells; EM127 + Doxorubicin) was “higher than 1”, the synergistic effect (MCF7 breast cancer cells; EM127 + Paclitaxel) was “higher than 1” and the synergistic effect ([16]; EM127 + Doxorubicin) was “higher than 1”. The synergistic effect ([16]; EM127 + Paclitaxel) was “higher than 1”.

For `O=C(c1cc(Cc2n[nH]c(=O)c3ccccc23)ccc1F)N1CCN(C(=O)C2CC2)CC1` [Olaparib], the “sensitivity to treatment with Olaparib alone” value (HR-deficient cell lines) is listed as “sensitive”.

With `CCc1c2c(nc3ccc(OC(=O)N4CCC(N5CCCCC5)CC4)cc13)-c1cc3c(c(=O)n1C2)COC(=O)[C@]3(O)CC` [Irinotecan, reference compound] the “reduction of cell viability” value (HCT116 cells [3]; [22]) was “about 50%” and the “reduction of cell viability” value (HT29 cells; [22]) was “about 50%”.

With `O=c1[nH]cc(F)c(=O)[nH]1` [5-Fluorouracil, reference compound] the “reduction of cell viability” value (HCT116 cells [3]; [22]) was “about 50%” and the “reduction of cell viability” value (HT29 cells; [22]) was “about 50%”.

With `N[C@@H]1CCCC[C@H]1N.[Pt+2]` [Oxaliplatin, reference compound] the “reduction of cell viability” value (HCT116 cells [3]; [22]) was “about 50%” and the “reduction of cell viability” value (HT29 cells; [22]) was “about 50%”.
